Assay [1] addresses T1, TH (TH-WT, hTH1) (Homo sapiens, UniProt P07101).
T1 construct: full-length wild-type (C-terminal residue 497), expressed in E. coli as HisMBP fusion from pETMBP1a/hTH1, tags cut with TEV protease
In words: TH activity, L-Dopa quantified by HPLC with fluorescence detection. Type of assay: biochemical.

Assay [2] addresses T2, TH:DNAJC12 complex (Homo sapiens, UniProt P07101).
T2 construct: both full-length wild-type, each expressed in E. coli as HisMBP fusion, tags cut with TEV protease; with DnaJ homolog subfamily C member 12
The description is as above. It is filed as biochemical.

Assay [3] has as its target T1, TH (TH-WT, hTH1). In words: differential scanning fluorimetry (SYPRO Orange). It is filed as binding. Conditions: 0.23 µM TH tetramer, 9 µM DA, ferrous ammonium sulfate; stabilization. (Differential scanning fluorimetry follows unfolding on heating by fluorescence.)
Assay [4] concerns the target T2, TH:DNAJC12 complex. In words: differential scanning fluorimetry (SYPRO Orange). Type of assay: binding. Conditions: 0.23 µM TH:DNAJC12 complex, 9 µM DA, ferrous ammonium sulfate; stabilization.
In assay [5] the target is T2, TH:DNAJC12 complex. In words: cryo-EM 3D reconstruction ([…] Å map). Conditions: Fe(III)-catecholate complex; map EMD-18289, no PDB model deposited; regulatory helix 39-58 density at active sites. Type of assay: binding.

Each structure is given as a SMILES string.

T2 sequence (P07101 1-497 isoform P07101-3): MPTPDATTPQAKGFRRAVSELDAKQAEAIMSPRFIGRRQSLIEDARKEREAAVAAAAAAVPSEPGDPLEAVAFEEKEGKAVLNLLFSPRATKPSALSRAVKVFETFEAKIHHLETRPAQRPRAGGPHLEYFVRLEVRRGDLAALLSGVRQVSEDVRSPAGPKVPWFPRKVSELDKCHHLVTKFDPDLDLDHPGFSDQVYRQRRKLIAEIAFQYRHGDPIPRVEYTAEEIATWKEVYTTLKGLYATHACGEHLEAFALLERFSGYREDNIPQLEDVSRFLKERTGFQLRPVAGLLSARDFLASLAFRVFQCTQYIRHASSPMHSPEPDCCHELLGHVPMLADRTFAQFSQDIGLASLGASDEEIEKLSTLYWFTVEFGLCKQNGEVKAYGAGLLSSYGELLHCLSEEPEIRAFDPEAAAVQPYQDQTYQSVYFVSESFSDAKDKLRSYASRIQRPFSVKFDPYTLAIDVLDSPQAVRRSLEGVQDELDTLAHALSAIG
T2 sequence (Q9UKB3 whole entry partner, the tested form may be a part): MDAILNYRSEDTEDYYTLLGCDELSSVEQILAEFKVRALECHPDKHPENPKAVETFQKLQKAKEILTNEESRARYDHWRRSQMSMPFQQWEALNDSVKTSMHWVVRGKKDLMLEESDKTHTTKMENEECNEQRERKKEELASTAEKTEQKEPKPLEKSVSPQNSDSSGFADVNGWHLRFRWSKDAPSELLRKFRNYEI
T1 sequence (P07101 1-497 isoform P07101-3): as the sequence (P07101 1-497 isoform P07101-3) above

Regarding `NCCc1ccc(O)c(O)c1` [dopamine], the IC50 on TH (TH-WT, hTH1) [1] came to 363 ± 82 nM; against TH:DNAJC12 complex [2], 356 ± 103 nM. The Tm result at TH (TH-WT, hTH1) [3] is “adding equimolar amounts of DA (per TH subunit) increased the Tm of TH”; on TH:DNAJC12 complex [4], “we also observed a Tm increase for the TH:DNAJC12 complex in the presence of DA”. For the same molecule, the “cryo-EM 3D reconstruction (5.0 Å map)” value at TH:DNAJC12 complex [5] is recorded as 3D reconstruction of TH:DNAJC12 in the presence of the feedback inhibitor DA (TH(DA):DNAJC12).

A word on the IC50: it is the midpoint of a concentration-inhibition curve. Low values mean higher potency, high ones lower potency.

(Values after paper PMC11926245, “Structural recognition and stabilization of tyrosine hydroxylase by the J-domain protein DNAJC12” (Nature Communications, 2025).)
